Results reported in ChEMBL document CHEMBL1208743, “Discovery of novel sphingosine kinase-1 inhibitors. Part 2” (Bioorg Med Chem Lett, 2010).

Assays:
[1] = Intrinsic clearance in rat liver microsome measured per mg of protein; assay type: ADME; conditions: liver microsomes
[2] = Intrinsic clearance in human liver microsome measured per mg of protein; assay type: ADME; conditions: liver microsomes
[3] = Distribution coefficient, log D of the compound; assay type: physicochemical; conditions: octanol/water
[4] = AUC in rat at 1 mg/kg, iv; assay type: ADME, organism-based; design: dose 1 mg/kg, route intravenous; conditions: plasma
[5] = Half life in rat at 1 mg/kg, iv; assay type: ADME, organism-based; design: dose 1 mg/kg, route intravenous; conditions: in vivo
[6] = Clearance in rat at 1 mg/kg, iv; assay type: ADME, organism-based; design: dose 1 mg/kg, route intravenous; conditions: in vivo
[7] = Volume of distribution at steady state in rat at 1 mg/kg, iv; assay type: ADME, organism-based; design: dose 1 mg/kg, route intravenous; conditions: in vivo, read-out: Vdss
[8] = AUC in rat at 3 mg/kg, po; assay type: ADME, organism-based; design: dose 3 mg/kg, route oral; conditions: plasma
[9] = Half life in rat at 3 mg/kg, po; assay type: ADME, organism-based; design: dose 3 mg/kg, route oral; conditions: in vivo
[10] = Cmax in rat at 3 mg/kg, po; assay type: ADME, organism-based; design: dose 3 mg/kg, route oral; conditions: in vivo
[11] = Tmax in rat at 3 mg/kg, po; assay type: ADME, organism-based; design: dose 3 mg/kg, route oral; conditions: in vivo
[12] = Oral bioavailability in rat at 3 mg/kg; assay type: ADME, organism-based; conditions: in vivo

## CCCCCCCc1nc(-c2ccc(CNC(=O)[C@H]3NCC[C@@H]3O)cc2)no1
[1]
  microsomal CLint: 60 µL/min/mg
[2]
  microsomal CLint: 45 µL/min/mg
[3]
  logD: 3.7

## C[C@H](NC(=O)[C@H]1NCC[C@@H]1O)c1ccc(-c2noc(CCC3CCCC3)n2)cc1
[1]
  microsomal CLint: 49.5 µL/min/mg
[2]
  microsomal CLint: 12 µL/min/mg
[3]
  logD: 2.9
[4]
  AUC: 439 ng·h/mL
[5]
  half-life: 4.3 h
[6]
  clearance: 37.1 mL/min/kg
[7]
  Vd: 5.55 L/kg
[8]
  AUC: 232 ng·h/mL
[9]
  half-life: 7.55 h
[10]
  Cmax: 82.5 ng/mL
[11]
  Tmax: 0.33 h
[12]
  bioavailability: 17.6%

## C[C@H](NC(=O)[C@H]1NCC[C@@H]1O)c1ccc(-c2noc(CCC3CCCCC3)n2)cc1
[1]
  microsomal CLint: 50.2 µL/min/mg
[2]
  microsomal CLint: < 4.5 µL/min/mg
[3]
  logD: 3.6

## CC[C@H](NC(=O)[C@H]1NCC[C@@H]1O)c1ccc(-c2noc(CCC3CCCCC3)n2)cc1
[1]
  microsomal CLint: 38.8 µL/min/mg
[2]
  microsomal CLint: 10 µL/min/mg
[3]
  logD: 4.3
[4]
  AUC: 204 ng·h/mL
[5]
  half-life: 1.64 h
[6]
  clearance: 81.8 mL/min/kg
[7]
  Vd: 7.86 L/kg
[8]
  AUC: 94.8 ng·h/mL
[9]
  half-life: 1.64 h
[10]
  Cmax: 37.5 ng/mL
[11]
  Tmax: 0.75 h
[12]
  bioavailability: 15.3%
